According to EPA's aquatic toxicity sets:

Tested on: Tetrahymena pyriformis
Test: 48 h IGC50 (-log10 mol/L); higher = more toxic

First: CCCCCCC#CC(=O)OC
Second: CCCCCCCC(=O)OC
The “48 h IGC50 (-log10 mol/L)” value of the first is higher: 4.32 for the first, 3.54 for the second.

N#Cc1cccc(N)c1 and Nc1cccc(O)c1 are within 0.2 log units of each other in “48 h IGC50 (-log10 mol/L)” value: 2.53 for the first, 2.48 for the second.

Compared with CCC=C(C)C=O, CCC/C=C/C(C)=O is higher in “48 h IGC50 (-log10 mol/L)” value: 2.98 for the first, 3.7 for the second.

Compared with NC(=O)Oc1ccccc1, NC(=S)c1ccccc1 is higher in “48 h IGC50 (-log10 mol/L)” value: 2.61 for the first, 3.09 for the second.

Compared with C#CC(C)(O)CCC (stereo not drawn), C#CC(O)C(C)CCC (stereo not drawn) is higher in “48 h IGC50 (-log10 mol/L)” value: 2.1 for the first, 3.74 for the second.

First: Oc1ccc(N=Nc2ccccc2)cc1
Second: Nc1ccc(C(=O)c2ccccc2)cc1
The “48 h IGC50 (-log10 mol/L)” value of the first is higher: 4.66 for the first, 3.68 for the second.

Compared with O=[N+]([O-])c1cc(Br)ccc1O, O=[N+]([O-])c1ccc(Br)c([N+](=O)[O-])c1 is higher in “48 h IGC50 (-log10 mol/L)” value: 4.87 for the first, 5.31 for the second.

Compared with CC(C)c1ccc(C=O)cc1, CCc1ccc(C=O)cc1 is lower in “48 h IGC50 (-log10 mol/L)” value: 3.67 for the first, 3.29 for the second.

First: CC#CCCO
Second: CCCC#CCCO
The “48 h IGC50 (-log10 mol/L)” value of the first is lower: 1.82 for the first, 2.68 for the second.

First: O=Cc1c(O)cc(O)cc1O
Second: O=Cc1cc(I)cc(I)c1O
The “48 h IGC50 (-log10 mol/L)” value of the first is lower: 3.13 for the first, 5.34 for the second.

OCC#CCO and NCCO are within 0.2 log units of each other in “48 h IGC50 (-log10 mol/L)” value: 1.12 for the first, 1.11 for the second.

First: CC(C)(C)c1cccc(O)c1
Second: OCCOc1cccc(O)c1
The “48 h IGC50 (-log10 mol/L)” value of the first is higher: 3.74 for the first, 2.13 for the second.

First: N#Cc1c(F)c(F)c(C#N)c(F)c1F
Second: N#CC(C#N)=Cc1ccco1
The “48 h IGC50 (-log10 mol/L)” value of the first is higher: 5.55 for the first, 3.94 for the second.

First: CC1CCCCC1=O (stereo not drawn)
Second: CC(=O)c1c(C)c[nH]c1C
The “48 h IGC50 (-log10 mol/L)” value of the first is lower: 2.19 for the first, 2.68 for the second.

First: Cc1c(O)ccc(O)c1C
Second: CC(=O)c1cc(C)ccc1O
The “48 h IGC50 (-log10 mol/L)” value of the first is higher: 4.41 for the first, 3.31 for the second.

Going from OCc1cccc2ccccc12 to S=C=NCc1cccc2ccccc12, the “48 h IGC50 (-log10 mol/L)” value rises from 3.13 to 6.06.

Going from Cc1cccc(C)c1N to Cc1ccc(O)cc1C, the “48 h IGC50 (-log10 mol/L)” value rises from 2.57 to 3.12.

Compared with CC(C)CCBr, CC(C)CN is lower in “48 h IGC50 (-log10 mol/L)” value: 3.25 for the first, 2.74 for the second.

Compared with CCOC(=O)C(Br)(Br)C(=O)OCC, CCOC(=O)C(Br)C(C)Br (stereo not drawn) is lower in “48 h IGC50 (-log10 mol/L)” value: 5.14 for the first, 4.44 for the second.

First: CC(C)(C)CC=O
Second: CC(C)(C)N
The “48 h IGC50 (-log10 mol/L)” value of the first is higher: 2.63 for the first, 2.1 for the second.

First: c1cnc2ccc3ncccc3c2c1
Second: Fc1cccc2ccccc12
The “48 h IGC50 (-log10 mol/L)” value of the first is higher: 4.14 for the first, 3.39 for the second.

First: CCOS(=O)OCC
Second: CCC(C)C(N)CO (stereo not drawn)
The “48 h IGC50 (-log10 mol/L)” value of the first is lower: 2.01 for the first, 2.34 for the second.

Compared with ClC/C=C/CCl, OCCCCCCCl is lower in “48 h IGC50 (-log10 mol/L)” value: 3.77 for the first, 2.73 for the second.

O=C(O)CCCC(=O)O and C=CCOC(=O)CCC are within 0.2 log units of each other in “48 h IGC50 (-log10 mol/L)” value: 2.36 for the first, 2.37 for the second.

CCCCCCCCCCC#N and CCCCCCCCCCC=O are within 0.2 log units of each other in “48 h IGC50 (-log10 mol/L)” value: 4.65 for the first, 4.69 for the second.

Going from COc1ccccc1C=O to O=Cc1ccccn1, the “48 h IGC50 (-log10 mol/L)” value falls from 3.15 to 2.86.

First: C=CC(C)(C)O
Second: C=CCOC(=O)C=C
The “48 h IGC50 (-log10 mol/L)” value of the first is lower: 1.61 for the first, 3.68 for the second.

Compared with Cc1ccc2ccccc2c1[N+](=O)[O-], CCOc1cccc2ccccc12 is higher in “48 h IGC50 (-log10 mol/L)” value: 4.04 for the first, 4.25 for the second.

CCCCCC(O)CC (stereo not drawn) and CCCC(CO)CCC are within 0.2 log units of each other in “48 h IGC50 (-log10 mol/L)” value: 2.94 for the first, 3.13 for the second.

First: O=C(CBr)c1ccc2ccc3cccc4ccc1c2c34
Second: O=C(CBr)Oc1ccc([N+](=O)[O-])cc1
The “48 h IGC50 (-log10 mol/L)” value of the first is higher: 5.39 for the first, 4.81 for the second.

CCC(=O)Cc1ccccc1 and CCC(O)Cc1ccccc1 (stereo not drawn) are within 0.2 log units of each other in “48 h IGC50 (-log10 mol/L)” value: 2.79 for the first, 2.84 for the second.

Going from CC(C)C(=O)O to CC(C)CC(N)=O, the “48 h IGC50 (-log10 mol/L)” value falls from 2.67 to 1.34.

Going from Nc1ncc([N+](=O)[O-])cn1 to COc1ccc([N+](=O)[O-])cn1, the “48 h IGC50 (-log10 mol/L)” value rises from 2.57 to 2.99.

Compared with CCOC(=O)c1ccc(I)cc1, CCCc1ccc(O)cc1 is lower in “48 h IGC50 (-log10 mol/L)” value: 4.53 for the first, 3.64 for the second.

Going from C=COC(=O)CCCCCCC to CCCCCCCC(=O)c1ccccc1, the “48 h IGC50 (-log10 mol/L)” value rises from 2.7 to 4.89.

First: OCC(c1ccccc1)c1ccccc1
Second: OCCCCCc1ccccc1
The “48 h IGC50 (-log10 mol/L)” value of the first is higher: 3.65 for the first, 3.42 for the second.

Compared with O=C(O)c1cc(Br)ccc1Br, C/C=C/c1ccc(O)c(OC)c1 is higher in “48 h IGC50 (-log10 mol/L)” value: 2.69 for the first, 3.75 for the second.

Compared with CNCC(O)CO (stereo not drawn), CCCCOC(=O)/C=C/c1ccccc1 is higher in “48 h IGC50 (-log10 mol/L)” value: 1.47 for the first, 4.53 for the second.

First: N#Cc1ccc[nH]1
Second: Nc1ccccc1I
The “48 h IGC50 (-log10 mol/L)” value of the first is lower: 2.42 for the first, 3.35 for the second.

Going from N#Cc1cc([N+](=O)[O-])cc([N+](=O)[O-])c1 to N#CCc1ccc(N)cc1, the “48 h IGC50 (-log10 mol/L)” value falls from 4.22 to 2.24.

First: Oc1c(Cl)c(Cl)c(O)c(Cl)c1Cl
Second: ClCCc1ccccc1
The “48 h IGC50 (-log10 mol/L)” value of the first is higher: 5.11 for the first, 3.17 for the second.

With N#CCBr the “48 h IGC50 (-log10 mol/L)” value was 5.23.
